According to ChEMBL document CHEMBL3758176, “Synthesis of dihydrosterculic acid-based monoglucosyl diacylglycerol and its analogues and their biological evaluation” (Eur J Med Chem, 2016):
The source made the active and inactive calls. No cut-off for these calls is given here.

Experiments:
HUVEC = test: Cytotoxicity against HUVEC assessed as reduction in cell viability by MTT assay; assay type: cell-based, Homo sapiens
[1] = Cytotoxicity against human SKOV3 cells assessed as reduction in cell viability by MTT assay; assay type: functional, cell-based, SK-OV-3
MCF7 [2] = test: Cytotoxicity against human MCF7 cells assessed as reduction in cell viability by MTT assay; assay type: functional, cell-based
A549 = test: Cytotoxicity against human A549 cells assessed as reduction in cell viability by MTT assay; assay type: functional, cell-based
[3] = Cytotoxicity against human DU145 cells assessed as reduction in cell viability by MTT assay; assay type: functional, cell-based, DU-145
MCF7 [4] = test: Induction of apoptosis in human MCF7 cells assessed as caspase-9 activation using AFC-conjugated Ac-LEHD as substrate at 5 to 10 uM incubated for 24 to 48 hrs by fluorescence assay relative to untreated control; assay type: functional
MCF7 [5] = test: Induction of apoptosis in human MCF7 cells assessed as caspase-3 activation using AFC-conjugated Ac-DEVD as substrate at 5 to 10 uM incubated for 24 to 48 hrs by fluorescence assay relative to untreated control; assay type: functional
MCF7 [6] = test: Antiproliferative activity against human MCF7 cells assessed as decrease in cell proliferation at 5 to 10 uM after 24 hrs by bromodeoxyuridine cell proliferation assay relative to untreated control; assay type: functional, cell-based
[7] = Homo sapiens, HUVEC, read-out: IC50
[8] = Homo sapiens, SK-OV-3, read-out: IC50
[9] = Homo sapiens, MCF7, read-out: IC50
[10] = Homo sapiens, A549, read-out: IC50
[11] = Homo sapiens, DU-145, read-out: IC50

Structure (SMILES) | IC50 (HUVEC; huvec) | IC50 ([1]; sk-ov-3) | IC50 (MCF7 [2]; mcf7) | IC50 (A549; a549) | IC50 ([3]; du-145) | IC50 (HUVEC; [7]) | IC50 [1, 8] | IC50 (MCF7 [2]; [9]) | IC50 (A549; [10]) | IC50 [3, 11] | fold change (FC) (MCF7 [4]) | fold change (FC) (MCF7 [5]) | Activity (MCF7 [6])
CCCCCCCC/C=C\CCCCCCCC(=O)OC[C@H](CO[C@@H]1O[C@H](COC(C)=O)[C@@H](OC(C)=O)[C@H](OC(C)=O)[C@H]1OC(C)=O)OC(=O)CCCCCCC/C=C\CCCCCCCC | Not Active | Not Active | Not Active | Not Active | Not Active |  |  |  |  |  |  |  | 
CCCCCCCCCCCC(=O)OC[C@H](CO[C@@H]1O[C@H](CO)[C@@H](O)[C@H](O)[C@H]1O)OC(=O)CCCCCCCCCCC |  |  |  |  |  | 96.1 µM | 44.4 µM | 32.6 µM | 35.6 µM | 54.9 µM |  |  | 
C=CCCCCCCCCC(=O)OC[C@H](CO[C@@H]1O[C@H](CO)[C@@H](O)[C@H](O)[C@H]1O)OC(=O)CCCCCCCCC=C |  |  |  |  |  | 126 µM | 89.6 µM | 32.5 µM | 106 µM | 119 µM |  |  | 
CCCCCCCCCCCC(=O)OC[C@H](CO[C@@H]1O[C@H](COC(C)=O)[C@@H](OC(C)=O)[C@H](OC(C)=O)[C@H]1OC(C)=O)OC(=O)CCCCCCCCCCC | Not Active | Not Active | Not Active | Not Active | Not Active |  |  |  |  |  |  |  | 
CCCCCCCC/C=C\CCCCCCCC(=O)O[C@H](COC(=O)CCCCCCCC1CC1CCCCCCCC)CO[C@@H]1O[C@H](COC(C)=O)[C@@H](OC(C)=O)[C@H](OC(C)=O)[C@H]1OC(C)=O (stereo partly specified) |  | Not Active |  | Not Active |  | 122 µM |  | 94.2 µM |  | 186 µM |  |  | 
COc1cccc2c1C(=O)c1c(O)c3c(c(O)c1C2=O)C[C@@](O)(C(=O)CO)C[C@@H]3O[C@H]1C[C@H](N)[C@H](O)[C@H](C)O1 [DOXORUBICIN] |  |  |  |  |  | 79.6 µM | 0.7 µM |  |  | 0.7 µM |  |  | 
CCCCCCCCC1CC1CCCCCCCC(=O)OC[C@H](CO[C@@H]1O[C@H](CO)[C@@H](O)[C@H](O)[C@H]1O)OC(=O)CCCCCCCC1CC1CCCCCCCC (stereo partly specified) |  |  |  |  |  | 120 µM | 112 µM | 99.8 µM | 124 µM | 210 µM |  |  | 
CCCCCCCC/C=C\CCCCCCCC(=O)OC[C@H](CO[C@@H]1O[C@H](CO)[C@@H](O)[C@H](O)[C@H]1O)OC(=O)CCCCCCC/C=C\CCCCCCCC |  |  |  |  |  | 110 µM | 19.1 µM | 17.6 µM | 18.2 µM | 20.1 µM | 2 | 2 | Active
CCCCCCCC/C=C\CCCCCCCC(=O)O[C@H](COC(=O)CCCCCCCC1CC1CCCCCCCC)CO[C@@H]1O[C@H](CO)[C@@H](O)[C@H](O)[C@H]1O (stereo partly specified) |  |  |  |  |  | 99.8 µM | 35.6 µM | 38.2 µM | 41.6 µM | 38.9 µM |  |  | 
CCCCCCCCC1CC1CCCCCCCC(=O)OC[C@H](CO[C@@H]1O[C@H](COC(C)=O)[C@@H](OC(C)=O)[C@H](OC(C)=O)[C@H]1OC(C)=O)OC(=O)CCCCCCCC1CC1CCCCCCCC (stereo partly specified) | Not Active | Not Active | Not Active | Not Active | Not Active |  |  |  |  |  |  |  | 
C=CCCCCCCCCC(=O)OC[C@H](CO[C@@H]1O[C@H](COC(C)=O)[C@@H](OC(C)=O)[C@H](OC(C)=O)[C@H]1OC(C)=O)OC(=O)CCCCCCCCC=C |  |  |  |  |  | 119 µM | 29.4 µM | 25.6 µM | 30.2 µM | 33 µM |  |  | 
